Data: ChEMBL document CHEMBL1138308, “Synthesis and antibacterial activity of potent heterocyclic oxazolidinones and the identification of RBx 8700” (2007)
≈ marks a conversion by molar mass, not a printed value.

Columns and labels:
Format in all cases: functional
Enterococcus faecium = assay: Antibacterial activity against vancomycin-resistant Enterococcus faecium 6A after 24 hrs by agar dilution method
Streptococcus pyogenes = assay: Antibacterial activity against Streptococcus pyogenes ATCC 19615 after 24 hrs by agar dilution method; conditions: ATCC 19615, 24 h
Staphylococcus aureus [1] = assay: Antibacterial activity against methicillin-resistant Staphylococcus aureus 562 infected orally dosed Swiss albino mouse after 7 days; conditions: po, 168 h
Streptococcus pneumoniae = assay: Antibacterial activity against Streptococcus pneumoniae ATCC 6303 after 24 hrs by agar dilution method; conditions: ATCC 6303, 24 h
Staphylococcus aureus [2] = assay: Antibacterial activity against methicillin-resistant Staphylococcus aureus 562 infected sc dosed Swiss albino mouse after 7 days; conditions: 168 h
Staphylococcus aureus [3] = assay: Antibacterial activity against methicillin-resistant Staphylococcus aureus 562 after 24 hrs by agar dilution method
Staphylococcus aureus [4] = assay: Antibacterial activity against methicillin-resistant Staphylococcus aureus 33 after 24 hrs by agar dilution method
Enterococcus faecalis = assay: Antibacterial activity against Enterococcus faecalis ATCC 29212 after 24 hrs by agar dilution method; conditions: ATCC 29212, 24 h
Staphylococcus aureus [5] = assay: Antibacterial activity against Staphylococcus aureus ATCC 25923 after 24 hrs by agar dilution method; conditions: ATCC 25923, 24 h
Moraxella catarrhalis = assay: Antibacterial activity against Moraxella catarrhalis
[6] = test system: Mycobacterium tuberculosis; assay: Antibacterial activity against sensitive Mycobacterium tuberculosis
Haemophilus influenzae = assay: Antibacterial activity against Haemophilus influenzae

Row | Compound | MIC (Enterococcus faecium) | MIC (Streptococcus pyogenes) | ED50 (Staphylococcus aureus [1]) | MIC (Streptococcus pneumoniae) | ED50 (Staphylococcus aureus [2]) | MIC (Staphylococcus aureus [3]) | MIC (Staphylococcus aureus [4]) | MIC (Enterococcus faecalis) | MIC (Staphylococcus aureus [5]) | MIC50 (Moraxella catarrhalis) | MIC90 [6] | MIC50 (Haemophilus influenzae)
1 | CC(=O)NC[C@H]1CN(c2ccc(N3CCOCC3)c(F)c2)C(=O)O1 [LINEZOLID] | 2 µg/mL (≈ 5.93 µM) | 2 µg/mL (≈ 5.93 µM) | 5.6 mg/kg |  |  |  |  |  |  |  |  | 
2 | CN[C@H](CC(C)C)C(=O)N[C@H]1C(=O)N[C@@H](CC(N)=O)C(=O)N[C@H]2C(=O)N[C@H]3C(=O)N[C@H](C(=O)N[C@H](C(=O)O)c4cc(O)cc(O)c4-c4cc3ccc4O)[C@H](O)c3ccc(c(Cl)c3)Oc3cc2cc(c3O[C@@H]2O[C@H](CO)[C@@H](O)[C@H](O)[C@H]2O[C@H]2C[C@](C)(N)[C@H](O)[C@H](C)O2)Oc2ccc(cc2Cl)[C@H]1O [VANCOMYCIN] | > 16 µg/mL |  |  | 0.5 µg/mL (≈ 0.345 µM) | 8.8 mg/kg |  |  |  |  |  |  | 
3 | CC(=O)NC[C@H]1CN(c2ccc(N3CCN(c4ccc(C=O)s4)CC3)c(F)c2)C(=O)O1 | 1 µg/mL (≈ 2.24 µM) | 0.5 µg/mL (≈ 1.12 µM) | > 25 mg/kg | 0.5 µg/mL (≈ 1.12 µM) |  | 0.5 µg/mL (≈ 1.12 µM) | 0.5 µg/mL (≈ 1.12 µM) | < 0.25 µg/mL | 1 µg/mL (≈ 2.24 µM) |  |  | 
4 | CC(=O)NC[C@H]1CN(c2ccc(N3CCN(c4ccc(C#N)s4)CC3)c(F)c2)C(=O)O1 |  | 0.25 µg/mL (≈ 0.564 µM) |  | 0.5 µg/mL (≈ 1.13 µM) |  | 2 µg/mL (≈ 4.51 µM) | 2 µg/mL (≈ 4.51 µM) | 2 µg/mL (≈ 4.51 µM) | 4 µg/mL (≈ 9.02 µM) |  |  | 
5 | CC(=O)NC[C@H]1CN(c2ccc(N3CCN(C(C)c4ccc([N+](=O)[O-])o4)CC3)c(F)c2)C(=O)O1 (stereo partly drawn) | 0.25 µg/mL (≈ 0.526 µM) | 0.06 µg/mL (≈ 0.126 µM) | 9.1 mg/kg | 1 µg/mL (≈ 2.1 µM) |  | 1 µg/mL (≈ 2.1 µM) | 1 µg/mL (≈ 2.1 µM) | 0.125 µg/mL (≈ 0.263 µM) | 1 µg/mL (≈ 2.1 µM) |  |  | 
6 | CC(=O)NC[C@H]1CN(c2ccc(N3CCN(C(=O)c4ccc([N+](=O)[O-])o4)CC3)c(F)c2)C(=O)O1 | 1 µg/mL (≈ 2.1 µM) | 2 µg/mL (≈ 4.21 µM) | 8.24 mg/kg | 2 µg/mL (≈ 4.21 µM) |  |  | 0.5 µg/mL (≈ 1.05 µM) | 1 µg/mL (≈ 2.1 µM) | 1 µg/mL (≈ 2.1 µM) |  |  | 
7 | CC(=O)NC[C@H]1CN(c2ccc(N3CCN(Cc4ccc([N+](=O)[O-])o4)CC3)c(F)c2)C(=O)O1.Cl [RANBEZOLID CHLORIDE] | 2 µg/mL | 0.125 µg/mL | 4.33 mg/kg | 0.125 µg/mL |  | 1 µg/mL | 2 µg/mL | 2 µg/mL | 1 µg/mL |  |  | 
8 | CC(=O)NC[C@H]1CN(c2ccc(N3CCN(C(C)c4ccc([N+](=O)[O-])s4)CC3)c(F)c2)C(=O)O1 (stereo partly drawn) | 0.5 µg/mL (≈ 1.02 µM) | 2 µg/mL (≈ 4.07 µM) | > 25 mg/kg | 2 µg/mL (≈ 4.07 µM) |  | 0.5 µg/mL (≈ 1.02 µM) | 0.5 µg/mL (≈ 1.02 µM) | 0.5 µg/mL (≈ 1.02 µM) | 0.5 µg/mL (≈ 1.02 µM) |  |  | 
9 | CC(=O)NC[C@H]1CN(c2ccc(N3CCN(c4ccc(C(C)=O)s4)CC3)c(F)c2)C(=O)O1 | > 16 µg/mL | > 16 µg/mL |  | > 16 µg/mL |  | > 16 µg/mL | > 16 µg/mL | > 16 µg/mL | > 16 µg/mL |  |  | 
10 | CC(=O)NC[C@H]1CN(c2ccc(N3CCN(C(=O)c4ccc([N+](=O)[O-])s4)CC3)c(F)c2)C(=O)O1 | 0.5 µg/mL (≈ 1.02 µM) | 0.125 µg/mL (≈ 0.254 µM) | 9.77 mg/kg | 0.5 µg/mL (≈ 1.02 µM) |  | 0.06 µg/mL (≈ 0.122 µM) | 0.06 µg/mL (≈ 0.122 µM) | 0.5 µg/mL (≈ 1.02 µM) | 0.125 µg/mL (≈ 0.254 µM) |  |  | 
11 | CC(=O)NC[C@H]1CN(c2ccc(N3CCN(C(=O)/C=C/c4ccc([N+](=O)[O-])o4)CC3)c(F)c2)C(=O)O1 | < 0.125 µg/mL | < 0.125 µg/mL | > 25 mg/kg | 0.5 µg/mL (≈ 0.997 µM) |  | 0.25 µg/mL (≈ 0.499 µM) | 0.25 µg/mL (≈ 0.499 µM) | 0.5 µg/mL (≈ 0.997 µM) | 0.5 µg/mL (≈ 0.997 µM) |  |  | 
12 | CC(=O)NC[C@H]1CN(c2ccc(N3CCN(C(=O)/C=C/c4ccc([N+](=O)[O-])s4)CC3)c(F)c2)C(=O)O1 | 0.5 µg/mL (≈ 0.966 µM) | 0.5 µg/mL (≈ 0.966 µM) | > 25 mg/kg | 1 µg/mL (≈ 1.93 µM) |  | 1 µg/mL (≈ 1.93 µM) | 0.5 µg/mL (≈ 0.966 µM) | 1 µg/mL (≈ 1.93 µM) | 0.5 µg/mL (≈ 0.966 µM) |  |  | 
13 | CC(=O)NC[C@H]1CN(c2ccc(N3CCN(c4ccc([N+](=O)[O-])s4)CC3)cc2)C(=O)O1 | 1 µg/mL (≈ 2.24 µM) | 0.5 µg/mL (≈ 1.12 µM) |  | 0.5 µg/mL (≈ 1.12 µM) |  | 1 µg/mL (≈ 2.24 µM) | 1 µg/mL (≈ 2.24 µM) | 1 µg/mL (≈ 2.24 µM) | 2 µg/mL (≈ 4.49 µM) |  |  | 
14 | CC(=O)NC[C@H]1CN(c2cc(F)c(N3CCN(c4ccc([N+](=O)[O-])s4)CC3)c(F)c2)C(=O)O1 | 0.25 µg/mL (≈ 0.519 µM) | 0.5 µg/mL (≈ 1.04 µM) | > 25 mg/kg | 0.5 µg/mL (≈ 1.04 µM) |  | 0.25 µg/mL (≈ 0.519 µM) | 0.25 µg/mL (≈ 0.519 µM) | 0.25 µg/mL (≈ 0.519 µM) | 0.25 µg/mL (≈ 0.519 µM) |  |  | 
15 | CC(=O)NC[C@H]1CN(c2ccc(N3CCN(Cc4ccc([N+](=O)[O-])s4)CC3)c(F)c2)C(=O)O1 | 8 µg/mL (≈ 16.8 µM) | 1 µg/mL (≈ 2.09 µM) | > 25 mg/kg | 8 µg/mL (≈ 16.8 µM) |  | 8 µg/mL (≈ 16.8 µM) | 8 µg/mL (≈ 16.8 µM) | 8 µg/mL (≈ 16.8 µM) | 8 µg/mL (≈ 16.8 µM) |  |  | 
16 | CC(=O)NC[C@H]1CN(c2ccc(N3CCN(c4ccc([N+](=O)[O-])s4)CC3)c(F)c2)C(=O)O1 | 0.25 µg/mL (≈ 0.539 µM) | 0.125 µg/mL (≈ 0.27 µM) | 11.2 mg/kg | 0.125 µg/mL (≈ 0.27 µM) |  | 0.25 µg/mL (≈ 0.539 µM) | 0.25 µg/mL (≈ 0.539 µM) | 0.25 µg/mL (≈ 0.539 µM) | 0.25 µg/mL (≈ 0.539 µM) | 2 µg/mL (≈ 4.32 µM) | 0.25 µg/mL (≈ 0.539 µM) | 8 µg/mL (≈ 17.3 µM)
17 | CC(=O)NC[C@H]1CN(c2ccc(N3CCN(c4ccc([N+](=O)[O-])o4)CC3)c(F)c2)C(=O)O1 | 8 µg/mL (≈ 17.9 µM) | 4 µg/mL (≈ 8.94 µM) |  | 4 µg/mL (≈ 8.94 µM) |  | 16 µg/mL (≈ 35.8 µM) | 8 µg/mL (≈ 17.9 µM) | 8 µg/mL (≈ 17.9 µM) | 16 µg/mL (≈ 35.8 µM) |  |  | 
